According to US20230242616A1, “CHEMOKINE-SELECTIVE CXCR4 ECTODOMAIN-DERIVED (POLY)PEPTIDE” (Ludwig-Maximilians-Universität München, priority 2020, published 2023):

Assays:
[1] = tested on: Apoe−/− mice with established plaques; test: Regression model of atherosclerosis; format: in vivo, mouse
Description: Control mice received saline. Mice were sacrificed after 9 weeks and vessel tissues prepared for plaque, cell, and macrophage staining. A. C, E, staining of aortic root sections with oil red O (ORO), hematoxylin eosin (HE), and anti-CD68, respectively. G, staining of aortic arch with HE. B, D, F, H, respective quantifications from 14 mice per group. Statistics: two-tailed, unpaired Mann-Whitney test; *, P<0.05; **, P<0.01.
To further test the therapeutic applicability of msR4M-L1, an in vivo test in a “regression setting” was applied to mimic the patient situation, who is typically seen by a physician only when symptoms occur. The real-life situation is thus one in which preformed plaques already exist, when a patient starts treatment. A regression model therefore better mimics the situation in patient with pre-existing atherosclerotic disease.
In a pilot study, atherogenic ApoE−/− mice were put on Western diet for 4.5 wks.

[2] = Blood cell counts, lipid levels and body weight of treated mice; format: in vivo, mouse
Description: Blood cell counts, triglycerides and cholesterol levels. […] APC-conjugated anti-CD19, FITC-conjugated anti-CD3.

[3] = molecular target: T1, human CXCR4 (CXCL12/CXCR4) (Homo sapiens, UniProt P48061); test: CXCR4-specific signaling in yeast (lacZ reporter), CXCL12-triggered; format: cell-based; conditions: 2 μM CXCL12
T1 construct: expressed in transfected cells; host or cells: S. cerevisiae strain CY12946
T1 sequence (P48061 22-89 limits assumed): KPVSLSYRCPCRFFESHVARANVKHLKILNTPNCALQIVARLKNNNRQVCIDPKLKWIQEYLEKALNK
Method: CXCR4-specific signaling in a yeast-based cell system. […] Briefly, yeast transformants stably expressing human CXCR4 were grown overnight at 30° C. in yeast nitrogen base selective medium (Formedium, UK). Cells were diluted to an OD600 of 0.2 and grown to an OD600 of 0.3-0.6. […] OD600 was measured and activation of CXCR4 signaling quantified by β-galactosidase activity using a commercial BetaGlo Kit (Promega, Mannheim, Germany).

human monocytes = test: 3D migration of monocytes elicited by MIF (time-lapse microscopy); format: cell-based
Description: Isolation of human peripheral blood-derived monocytes. Human peripheral blood-derived monocytes were isolated as described^14. Briefly, blood was collected from healthy donors or buffy coat obtained from the blood bank of Munich University Hospital, mixed 1:1 with PBS, and PBMCs isolated by Ficoll-Paque Plus gradient (GE Healthcare). Monocytes were purified by negative depletion using the Monocyte Isolation Kit II (Miltenyi). Monocyte purity was verified by flow cytometry using an anti-CD14 antibody (Miltenyl) and was 95-98%. […] The isolation of PBMCs from donor blood was approved by the local ethics committee of LMU Munich. 3D migration of human peripheral blood-derived monocytes by time-lapse microscopy. The 3D-migration behavior of human monocytes was assessed by time-lapse microscopy and individual cell tracking using the 3D chemotaxis μ-Slide system from Ibidi GmbH (Munich, Germany), adapting the established Ibidi dendritic cell protocol for human monocytes. […] Cell motility was monitored performing time-lapse imaging every 1 min at 37° C. for 2 h using a Leica inverted DMi8-Life Cell Imaging System equipped with a DMC2900 Digital Microscope Camera with CMOS sensor and live cell-imaging software (Leica Microsystems, Wetzlar, Germany). Images were imported as stacks to ImageJ software and analyzed with the manual tracking and chemotaxis/migration tools (Ibidi GmbH).

Apoe−/− mice on HFD = test: In-vivo model of early atherosclerosis
Method: Seven-eight-week-old female Apoe^−/− mice were randomly divided into two groups of 11-12 mice each and both groups put on a Western-type HFD (0.2% cholesterol) for 4.5 weeks. Mice develop early-to-intermediate atherosclerotic lesions in this model^39. […] At the end of the experiment, mice were sacrificed, blood collected by cardiac puncture and saved for blood cell and lipid measurements and mice transcardially perfused with saline. Hearts, proximal aortas and carotid arteries were prepared and fixed for plaque morphometry and lesion analysis.
Quantification of plaques and vessel morphometry (oil red O and H&E staining). Cut heart tissue containing aortic root were embedded in optimum cutting temperature (OCT) (Sakura Finetek, Osaka, Japan) and frozen at −80° C. Eight-μm sections were prepared for oil-red O (ORO) staining and plaque immune cell analysis. The accumulation of macrophages in aortic root lesions was determined by an anti-MAC-2 antibody followed by Cy5-conjugated secondary antibody. Nuclei were visualized with DAPI. The aortic arch was cut, fixed in 4% paraformaldehyde (PFA) and embedded in paraffin. Ten-μm sections containing the three branches (brachiocephalic, left common carotid, and left subclavian artery) were prepared and stained with hematoxylin/eosin (HE) for vessel morphometry. Images were captured with a Leica DMi8 microscope and quantified using Image J.

[4] = tested on: human monocyte-derived macrophages; conditions: read-out: IC50 of MIF-triggered Dil-oxLDL uptake; lower threshold of effect size roughly 50%

CC[C@H](C)[C@H](NC(=O)[C@H](Cc1ccc(O)cc1)NC(=O)[C@H](CCCNC(=N)N)NC(=O)[C@H](CC(=O)O)NC(=O)CCCCCCCCCCCNC(=O)CCCCCNC(=O)[C@H](CCCCN)NC(=O)[C@H](CS)NC(=O)[C@H](CC(C)C)NC(=O)[C@H](Cc1ccccc1)NC(=O)[C@H](CC(N)=O)NC(=O)CNC(=O)[C@H](Cc1ccccc1)NC(=O)[C@H](Cc1ccc(O)cc1)NC(=O)[C@H](Cc1c[nH]c2ccccc12)NC(=O)[C@H](CC(N)=O)NC(=O)[C@H](C)NC(=O)[C@@H](NC(=O)[C@H](C)NC(=O)[C@@H](N)CC(=O)O)C(C)C)C(=O)N[C@@H](CS)C(=O)N[C@@H](CC(=O)O)C(=O)N[C@@H](CCCNC(=N)N)C(=O)N[C@@H](Cc1ccccc1)C(=O)N[C@@H](Cc1ccc(O)cc1)C(=O)N1CCC[C@H]1C(=O)N[C@@H](CC(N)=O)C(=O)N[C@@H](CC(=O)O)C(=O)N[C@@H](CC(C)C)C(=O)N[C@@H](Cc1c[nH]c2ccccc12)C(=O)N[C@H](C(N)=O)C(C)C [msR4M-L1]
plaque load, pilot regression study ([1]; 4-5 mice per group, 50 μg/mouse, 3× per week): decreased plaque load (trend) | atherosclerotic plaques (ORO and HE aortic root, HE aortic arch), regression study ([1]; 14 mice per group): leads to a regression of atherosclerotic plaques | intralesional inflammation, CD68+ macrophage area ([1]; 14 mice per group): reduced | Leukocytes ([2]; Apoe−/− mice, HFD 4.5 weeks): 4632 ± 286 per μL | Lymphocytes ([2]; Apoe−/− mice, HFD 4.5 weeks): 2347 ± 50 per μL | Monocytes ([2]; Apoe−/− mice, HFD 4.5 weeks): 552 ± 51 per μL | Neutrophils ([2]; Apoe−/− mice, HFD 4.5 weeks): 1897 ± 46 per μL | Triglycerides ([2]; Apoe−/− mice, HFD 4.5 weeks): 156.7 ± 3.8 mg/dL | Weight ([2]; Apoe−/− mice, HFD 4.5 weeks): 22.3 ± 0.2 g | Cholesterol ([2]; Apoe−/− mice, HFD 4.5 weeks, means ± SD): 647.4 ± 19.2 mg/dL | effect on body weight, plasma total cholesterol, triglyceride levels, blood leukocyte counts ([2]; mouse, in vivo): did not observe any effect | effect on CXCL12/CXCR4-elicited signaling [3]: remained unaffected | effect on MIF-triggered 3D monocyte migration (human monocytes): dose-dependently attenuated | molar excess that ablates the pro-migratory effect of MIF (human monocytes): 2 -fold molar excess | toxicity or side effects (Apoe−/− mice on HFD; 50 μg i.p. for 4.5 weeks): No toxicity or side effects were noted | number of lesional macrophages (MAC-2 staining) (Apoe−/− mice on HFD; 50 μg per mouse i.p., HFD 4.5 weeks): significantly decreased number of lesional macrophages | atherosclerotic lesion size in aortic arch and root (Apoe−/− mice on HFD; 50 μg per mouse i.p., HFD 4.5 weeks, versus vehicle): significantly decreased | IC50 [4]: ~100 nM
